From article PMC10528299, “Targeting FAK/PYK2 with SJP1602 for Anti-Tumor Activity in Triple-Negative Breast Cancer” (Current Issues in Molecular Biology, 2023) come the findings set out here.

What all share (assay): Eurofins kinase profiling
What all share (format): biochemical

In one experiment the target is T1, ALK(h) (Homo sapiens, UniProt Q9UM73).
T1 construct: purchased Eurofins KinaseProfiler
The conditions noted are these: for remaining activity at 1 µM: read-out: residual kinase activity ALK(h). How it is done:
(§1) The kinase profiling analysis was performed at Eurofins (Poitiers, France). A total of 110 kinase assays were carried out according to Eurofins’ standard protocols. For protein kinase assays, the kinase activity was measured using Eurofins’ KinaseProfiler radiometric assay. In this assay, a panel of kinases was incubated with the test compound SJP1602 at a concentration of 1 µM, and the kinase activity was determined using radiolabeled phosphate as a substrate. Lipid and atypical kinase assays were conducted using Eurofins’ homogeneous time-resolved fluorescence assay. The same panel of kinases was incubated with SJP1602 at a concentration of 1 µM, and the activity of lipid and atypical kinases was measured using this assay.

Another experiment has as its target T2, B-Raf(V599E)(h) (Homo sapiens, UniProt P15056, V600E).
T2 construct: purchased Eurofins KinaseProfiler
The conditions noted are these: read-out: residual kinase activity B-Raf(V599E)(h). As for the experimental part: as §1

Another experiment deals with T3, DCAMKL3(h) (Homo sapiens, UniProt Q9C098).
T3 construct: purchased Eurofins KinaseProfiler
T3 sequence (Q9C098 1-648): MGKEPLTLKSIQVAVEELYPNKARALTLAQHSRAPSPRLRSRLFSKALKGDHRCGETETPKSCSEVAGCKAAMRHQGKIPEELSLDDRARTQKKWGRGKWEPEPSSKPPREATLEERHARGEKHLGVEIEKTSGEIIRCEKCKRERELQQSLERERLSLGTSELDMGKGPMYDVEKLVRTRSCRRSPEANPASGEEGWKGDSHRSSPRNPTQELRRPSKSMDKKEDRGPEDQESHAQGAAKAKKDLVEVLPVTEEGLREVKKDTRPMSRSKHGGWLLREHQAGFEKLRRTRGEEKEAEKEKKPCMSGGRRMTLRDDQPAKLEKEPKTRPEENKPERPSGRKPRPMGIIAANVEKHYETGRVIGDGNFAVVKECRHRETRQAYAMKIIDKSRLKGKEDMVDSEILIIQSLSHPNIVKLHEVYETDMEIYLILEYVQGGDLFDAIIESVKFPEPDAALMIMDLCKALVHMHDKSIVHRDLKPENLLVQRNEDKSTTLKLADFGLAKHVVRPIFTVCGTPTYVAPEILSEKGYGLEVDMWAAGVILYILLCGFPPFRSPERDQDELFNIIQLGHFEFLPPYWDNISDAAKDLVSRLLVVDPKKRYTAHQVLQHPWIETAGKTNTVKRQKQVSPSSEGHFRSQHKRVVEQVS
The conditions noted are these: read-out: residual kinase activity DCAMKL3(h). As for the experimental part:
as §1

A further experiment has as its target T4, DNA-PK(h) (Homo sapiens, UniProt P78527).
T4 construct: purchased Eurofins KinaseProfiler
The conditions noted are these: read-out: residual kinase activity DNA-PK(h). As for the experimental part: as §1

The target in a further experiment is T5, EGFR(L861Q)(h) (Homo sapiens, UniProt P00533, L861Q).
T5 construct: purchased Eurofins KinaseProfiler
T5 sequence (P00533 25-1210 L861Q): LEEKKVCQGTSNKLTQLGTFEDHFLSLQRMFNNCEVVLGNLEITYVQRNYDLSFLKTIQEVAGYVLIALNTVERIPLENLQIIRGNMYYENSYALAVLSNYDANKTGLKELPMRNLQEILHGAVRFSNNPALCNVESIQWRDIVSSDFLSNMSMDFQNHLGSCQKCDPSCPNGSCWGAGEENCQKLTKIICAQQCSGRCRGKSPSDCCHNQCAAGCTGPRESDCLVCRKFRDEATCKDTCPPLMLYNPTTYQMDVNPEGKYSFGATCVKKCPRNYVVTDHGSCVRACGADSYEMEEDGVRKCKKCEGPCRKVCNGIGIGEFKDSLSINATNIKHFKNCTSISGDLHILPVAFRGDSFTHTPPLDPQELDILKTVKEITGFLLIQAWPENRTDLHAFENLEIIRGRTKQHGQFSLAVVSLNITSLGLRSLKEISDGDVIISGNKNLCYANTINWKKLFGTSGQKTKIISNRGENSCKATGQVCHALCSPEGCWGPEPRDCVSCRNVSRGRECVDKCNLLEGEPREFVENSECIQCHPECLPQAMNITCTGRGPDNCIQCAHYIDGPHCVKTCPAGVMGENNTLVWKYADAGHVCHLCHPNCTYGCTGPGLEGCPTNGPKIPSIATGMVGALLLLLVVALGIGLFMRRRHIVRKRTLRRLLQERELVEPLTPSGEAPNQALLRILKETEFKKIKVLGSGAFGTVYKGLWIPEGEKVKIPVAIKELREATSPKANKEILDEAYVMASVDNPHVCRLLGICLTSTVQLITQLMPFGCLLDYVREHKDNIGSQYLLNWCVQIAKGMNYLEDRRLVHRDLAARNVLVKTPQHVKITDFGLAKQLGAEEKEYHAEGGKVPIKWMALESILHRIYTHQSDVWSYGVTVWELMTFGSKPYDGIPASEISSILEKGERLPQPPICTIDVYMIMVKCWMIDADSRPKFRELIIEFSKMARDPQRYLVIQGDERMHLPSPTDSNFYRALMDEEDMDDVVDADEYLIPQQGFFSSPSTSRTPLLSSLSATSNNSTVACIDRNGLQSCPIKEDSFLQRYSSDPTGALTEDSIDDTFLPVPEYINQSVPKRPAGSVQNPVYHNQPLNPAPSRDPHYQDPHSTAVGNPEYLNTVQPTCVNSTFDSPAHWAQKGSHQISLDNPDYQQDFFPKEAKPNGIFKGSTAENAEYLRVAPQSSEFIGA
Conditions: read-out: residual kinase activity EGFR(L861Q)(h). As for the experimental part:
as §1

Another experiment addresses T6, EphA7(h) (Homo sapiens, UniProt Q15375).
T6 construct: purchased Eurofins KinaseProfiler
Conditions: read-out: residual kinase activity EphA7(h). As for the experimental part: as §1

Another experiment deals with T7, Fes(h) (Homo sapiens, UniProt P07332).
T7 construct: purchased Eurofins KinaseProfiler
The conditions noted are these: read-out: residual kinase activity Fes(h). How it is done: as §1

In a further experiment the target is T8, Fms(h) (Homo sapiens, UniProt P07333).
T8 construct: purchased Eurofins KinaseProfiler
T8 sequence (P07333 20-972): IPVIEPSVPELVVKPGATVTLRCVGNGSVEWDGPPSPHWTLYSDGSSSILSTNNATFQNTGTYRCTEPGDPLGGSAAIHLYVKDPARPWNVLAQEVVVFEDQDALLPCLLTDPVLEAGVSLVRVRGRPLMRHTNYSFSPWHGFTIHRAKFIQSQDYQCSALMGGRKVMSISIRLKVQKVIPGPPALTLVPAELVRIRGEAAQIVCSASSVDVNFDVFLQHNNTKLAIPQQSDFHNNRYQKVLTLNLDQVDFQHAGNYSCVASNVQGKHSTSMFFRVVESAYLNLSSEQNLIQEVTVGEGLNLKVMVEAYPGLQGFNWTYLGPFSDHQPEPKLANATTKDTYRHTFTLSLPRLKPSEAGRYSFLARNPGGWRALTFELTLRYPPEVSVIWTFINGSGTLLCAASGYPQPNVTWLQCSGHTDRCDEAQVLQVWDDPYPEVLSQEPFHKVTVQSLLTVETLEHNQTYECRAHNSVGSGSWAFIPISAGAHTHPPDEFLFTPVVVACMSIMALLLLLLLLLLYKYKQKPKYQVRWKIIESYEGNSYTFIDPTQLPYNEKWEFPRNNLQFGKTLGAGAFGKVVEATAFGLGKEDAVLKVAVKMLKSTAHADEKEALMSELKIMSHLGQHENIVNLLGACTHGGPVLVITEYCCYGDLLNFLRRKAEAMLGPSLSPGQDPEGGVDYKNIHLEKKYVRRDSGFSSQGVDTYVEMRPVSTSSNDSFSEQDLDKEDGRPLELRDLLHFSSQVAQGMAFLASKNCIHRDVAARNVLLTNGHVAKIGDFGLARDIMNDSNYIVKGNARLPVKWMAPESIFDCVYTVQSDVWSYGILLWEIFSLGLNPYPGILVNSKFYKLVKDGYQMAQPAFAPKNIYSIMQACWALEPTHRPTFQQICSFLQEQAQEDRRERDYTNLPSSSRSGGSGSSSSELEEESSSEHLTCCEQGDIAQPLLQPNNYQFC
Conditions: read-out: residual kinase activity Fms(h). As for the experimental part: as §1

The target of the next experiment is T9, HIPK3(h) (Homo sapiens, UniProt Q9H422).
T9 construct: purchased Eurofins KinaseProfiler
Conditions: read-out: residual kinase activity HIPK3(h). As for the experimental part:
as §1

The next experiment has as its target T10, IGF-1R(h) (Homo sapiens, UniProt P08069).
T10 construct: purchased Eurofins KinaseProfiler
Conditions: read-out: residual kinase activity IGF-1R(h). As for the experimental part:
as §1

The next experiment deals with T11, IGF-1R(h), activated (Homo sapiens, UniProt P08069).
T11 construct: purchased Eurofins KinaseProfiler
T11 sequence (P08069 31-1367): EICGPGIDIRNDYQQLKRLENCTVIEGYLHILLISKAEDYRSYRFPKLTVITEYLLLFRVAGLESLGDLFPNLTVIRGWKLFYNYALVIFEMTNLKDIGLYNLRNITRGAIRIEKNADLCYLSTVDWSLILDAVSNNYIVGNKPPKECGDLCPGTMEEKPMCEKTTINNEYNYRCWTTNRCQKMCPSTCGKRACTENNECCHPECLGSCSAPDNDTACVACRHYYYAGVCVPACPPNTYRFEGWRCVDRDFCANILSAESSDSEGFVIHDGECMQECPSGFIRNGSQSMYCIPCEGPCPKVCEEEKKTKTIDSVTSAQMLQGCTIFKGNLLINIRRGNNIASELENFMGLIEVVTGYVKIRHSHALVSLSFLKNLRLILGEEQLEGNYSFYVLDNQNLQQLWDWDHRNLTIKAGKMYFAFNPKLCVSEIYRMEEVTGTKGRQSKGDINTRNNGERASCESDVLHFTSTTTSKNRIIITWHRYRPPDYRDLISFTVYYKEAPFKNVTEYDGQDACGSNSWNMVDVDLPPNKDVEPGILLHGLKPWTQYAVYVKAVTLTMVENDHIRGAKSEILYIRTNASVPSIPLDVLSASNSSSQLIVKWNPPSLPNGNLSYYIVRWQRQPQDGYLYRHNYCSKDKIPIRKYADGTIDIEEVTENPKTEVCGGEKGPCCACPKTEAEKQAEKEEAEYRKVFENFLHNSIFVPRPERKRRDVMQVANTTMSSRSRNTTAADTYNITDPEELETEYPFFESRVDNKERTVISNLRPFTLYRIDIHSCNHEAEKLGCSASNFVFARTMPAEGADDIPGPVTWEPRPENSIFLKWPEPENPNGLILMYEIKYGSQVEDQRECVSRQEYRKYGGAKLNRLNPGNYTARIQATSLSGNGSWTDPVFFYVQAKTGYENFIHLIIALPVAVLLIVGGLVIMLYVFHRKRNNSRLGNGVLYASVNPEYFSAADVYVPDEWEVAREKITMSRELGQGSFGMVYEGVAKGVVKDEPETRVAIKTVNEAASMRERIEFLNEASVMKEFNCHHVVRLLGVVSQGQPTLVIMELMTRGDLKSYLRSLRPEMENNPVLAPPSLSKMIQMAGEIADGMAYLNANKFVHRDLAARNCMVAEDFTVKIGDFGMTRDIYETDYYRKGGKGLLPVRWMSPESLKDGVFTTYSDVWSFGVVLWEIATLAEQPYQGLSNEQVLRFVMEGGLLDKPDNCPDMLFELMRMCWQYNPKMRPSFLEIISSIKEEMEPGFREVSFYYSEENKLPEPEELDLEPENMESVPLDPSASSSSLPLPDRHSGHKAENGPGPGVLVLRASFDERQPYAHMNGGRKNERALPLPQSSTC
Conditions: 1 µM. As for the experimental part: as §1

A further experiment concerns the target T12, Met(h) (Homo sapiens, UniProt P08581).
T12 construct: purchased Eurofins KinaseProfiler
Conditions: for remaining activity at 1 µM: read-out: residual kinase activity Met(h). As for the experimental part: as §1

The target of the next experiment is T13, PDK1(h) (Homo sapiens, UniProt O15530).
T13 construct: purchased Eurofins KinaseProfiler
T13 sequence (O15530 1-556): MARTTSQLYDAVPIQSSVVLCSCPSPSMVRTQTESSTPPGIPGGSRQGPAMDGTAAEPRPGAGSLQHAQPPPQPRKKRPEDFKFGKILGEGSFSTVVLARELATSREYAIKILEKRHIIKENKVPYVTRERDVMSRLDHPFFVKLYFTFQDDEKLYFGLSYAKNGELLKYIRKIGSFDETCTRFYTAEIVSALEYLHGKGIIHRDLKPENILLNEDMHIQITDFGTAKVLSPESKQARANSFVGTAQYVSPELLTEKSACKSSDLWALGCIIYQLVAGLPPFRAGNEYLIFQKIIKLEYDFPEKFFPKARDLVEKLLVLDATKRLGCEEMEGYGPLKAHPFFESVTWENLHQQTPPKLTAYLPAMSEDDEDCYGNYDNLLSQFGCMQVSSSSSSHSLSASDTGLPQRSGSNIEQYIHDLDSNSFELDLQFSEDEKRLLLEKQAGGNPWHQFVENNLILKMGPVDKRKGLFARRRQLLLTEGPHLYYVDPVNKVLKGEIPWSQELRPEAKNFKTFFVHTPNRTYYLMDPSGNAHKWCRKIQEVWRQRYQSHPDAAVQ
The conditions noted are these: read-out: residual kinase activity PDK1(h). As for the experimental part:
as §1

The next experiment addresses T14, ROCK-I(h) (Homo sapiens, UniProt Q13464).
T14 construct: purchased Eurofins KinaseProfiler
The conditions noted are these: read-out: residual kinase activity ROCK-I(h). As for the experimental part:
as §1

The target in another experiment is T15, Ret(h) (Homo sapiens, UniProt P07949).
T15 construct: purchased Eurofins KinaseProfiler
Conditions: read-out: residual kinase activity Ret(h). How it is done:
as §1

A further experiment addresses T16, Tie2 (h) (Homo sapiens, UniProt Q02763).
T16 construct: purchased Eurofins KinaseProfiler
The conditions noted are these: read-out: residual kinase activity Tie2 (h). As for the experimental part:
as §1

The target of a further experiment is T17, Wee1(h) (Homo sapiens, UniProt P30291).
T17 construct: purchased Eurofins KinaseProfiler
T17 sequence (P30291 whole entry): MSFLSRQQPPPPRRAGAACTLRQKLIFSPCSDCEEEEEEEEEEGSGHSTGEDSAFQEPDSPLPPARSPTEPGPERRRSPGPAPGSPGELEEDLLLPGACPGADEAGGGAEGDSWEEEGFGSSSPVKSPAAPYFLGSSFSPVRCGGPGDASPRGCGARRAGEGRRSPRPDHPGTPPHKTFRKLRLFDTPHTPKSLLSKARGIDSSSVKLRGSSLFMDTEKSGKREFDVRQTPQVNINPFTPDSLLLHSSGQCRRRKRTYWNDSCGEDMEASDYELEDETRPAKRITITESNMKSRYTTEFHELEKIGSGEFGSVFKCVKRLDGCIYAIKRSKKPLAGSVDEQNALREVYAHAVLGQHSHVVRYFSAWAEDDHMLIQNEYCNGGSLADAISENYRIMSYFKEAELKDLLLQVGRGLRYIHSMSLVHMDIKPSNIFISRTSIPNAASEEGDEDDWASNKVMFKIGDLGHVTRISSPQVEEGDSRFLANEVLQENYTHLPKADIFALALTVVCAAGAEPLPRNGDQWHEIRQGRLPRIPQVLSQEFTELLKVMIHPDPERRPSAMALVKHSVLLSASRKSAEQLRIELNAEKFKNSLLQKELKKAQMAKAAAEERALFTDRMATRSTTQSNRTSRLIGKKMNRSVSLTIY
The conditions noted are these: read-out: residual kinase activity Wee1(h). How it is done:
as §1

For the next experiment, the target named is T18, Yes(h) (Homo sapiens, UniProt P07947).
T18 construct: purchased Eurofins KinaseProfiler
Conditions: read-out: residual kinase activity Yes(h). How it is done: as §1

The target in another experiment is T19, cKit(V560G)(h) (Homo sapiens, UniProt P10721, V560G).
T19 construct: purchased Eurofins KinaseProfiler
T19 sequence (P10721 26-976 V560G): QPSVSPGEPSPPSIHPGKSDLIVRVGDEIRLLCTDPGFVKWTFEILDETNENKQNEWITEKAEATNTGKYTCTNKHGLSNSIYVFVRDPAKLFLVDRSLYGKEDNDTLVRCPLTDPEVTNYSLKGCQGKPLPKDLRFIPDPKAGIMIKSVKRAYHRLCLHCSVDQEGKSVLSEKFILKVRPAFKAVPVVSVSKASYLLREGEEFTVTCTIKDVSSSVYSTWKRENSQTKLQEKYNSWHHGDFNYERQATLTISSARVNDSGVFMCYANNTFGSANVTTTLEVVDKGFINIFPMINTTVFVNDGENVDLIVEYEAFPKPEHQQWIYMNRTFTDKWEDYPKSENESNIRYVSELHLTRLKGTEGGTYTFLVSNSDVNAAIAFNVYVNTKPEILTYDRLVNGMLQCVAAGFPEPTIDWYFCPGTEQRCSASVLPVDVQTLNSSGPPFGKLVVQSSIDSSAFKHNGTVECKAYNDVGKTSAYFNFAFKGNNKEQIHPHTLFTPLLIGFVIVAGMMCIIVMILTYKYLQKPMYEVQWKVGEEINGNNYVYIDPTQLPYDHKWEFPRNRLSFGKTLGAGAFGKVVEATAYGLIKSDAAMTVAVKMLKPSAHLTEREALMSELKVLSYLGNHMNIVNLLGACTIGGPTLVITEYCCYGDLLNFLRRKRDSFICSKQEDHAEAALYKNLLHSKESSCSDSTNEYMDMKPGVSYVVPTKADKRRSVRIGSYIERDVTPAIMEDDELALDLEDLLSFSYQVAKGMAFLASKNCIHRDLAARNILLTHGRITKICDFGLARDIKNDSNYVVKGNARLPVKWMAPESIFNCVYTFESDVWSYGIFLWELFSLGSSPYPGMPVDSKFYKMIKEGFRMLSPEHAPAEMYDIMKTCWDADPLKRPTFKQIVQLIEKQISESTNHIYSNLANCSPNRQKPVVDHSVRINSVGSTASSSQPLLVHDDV
The conditions noted are these: read-out: residual kinase activity cKit(V560G)(h). How it is done:
as §1

T10 sequence (P08069 31-1367): as the sequence (P08069 31-1367) above

On to `CONC(=O)c1ccccc1Nc1cc(Nc2cc(C)nn2C(C)C)ncc1Cl` [GSK2256098], for which the remaining activity at 1 µM was determined as 73% on ALK(h); 67% on B-Raf(V599E)(h); 98% on DCAMKL3(h); 98% on DNA-PK(h); 69% at EGFR(L861Q)(h); 99% on EphA7(h). Also, the remaining activity at 1 µM amounted to 49% at Fes(h); 88% on Fms(h); 106% on HIPK3(h); 115% at IGF-1R(h); 76% at Met(h); 117% on PDK1(h). Moreover, the remaining activity at 1 µM on ROCK-I(h) worked out at 107%; on Ret(h), 117%; at Tie2 (h), 108%; on Wee1(h), 88%; on Yes(h) it was 99%; on cKit(V560G)(h) it was 104%. The “residual kinase activity IGF-1R(h), activated” value on IGF-1R(h), activated was 108.

In the case of `CNC(=O)c1cccc(C)c1Nc1nc(Nc2ccc(N3CCN(C4C5CC6CC4CC(O)(C6)C5)CC3)cc2OC)ncc1C(F)(F)F` (centres unmarked) [SJP1602, 2-((2-((4-(4-((2s,5r)-5-hydroxyadamantan-2-yl)piperazin-1-yl)-2-methoxyphenyl)amino)-5-(trifluoromethyl)pyrimidin-4-yl)amino)-N,3-dimethylbenzamide], the inhibition – broadly, the change of the read-out against control, counted positive when it falls – at 1 µM is 72% against ALK(h) and 79% on Met(h). Besides, the remaining activity at 1 µM is 28% at ALK(h); 105% at B-Raf(V599E)(h); 98% at DCAMKL3(h); 98% at DNA-PK(h); 120% on EGFR(L861Q)(h); 103% at EphA7(h). Also, the remaining activity at 1 µM on Fes(h) came to 54%; on Fms(h) it was 85%; at HIPK3(h) it was 100%; on IGF-1R(h) it was 116%; at Met(h) it was 21%; on PDK1(h), 102%. The remaining activity at 1 µM worked out at 101% at ROCK-I(h); 111% at Ret(h); 105% on Tie2 (h); 101% at Wee1(h); 84% on Yes(h); 136% on cKit(V560G)(h). In addition, the “residual kinase activity IGF-1R(h), activated” value on IGF-1R(h), activated is listed as 105.

Regarding `CNC(=O)c1ccc(Nc2ncc(C(F)(F)F)c(NCc3nccnc3N(C)S(C)(=O)=O)n2)cc1` [VS-6063, Defactinib], the remaining activity at 1 µM at ALK(h) was found to be 96%; on B-Raf(V599E)(h), 89%; at DCAMKL3(h), 42%; at DNA-PK(h), 85%; on EGFR(L861Q)(h) it was 128%; at EphA7(h), 41%. The remaining activity at 1 µM on Fes(h) turned out to be 7%; on Fms(h) it was 67%; on HIPK3(h), 54%; on IGF-1R(h), 55%; on Met(h), 42%; at PDK1(h), 66%. The remaining activity at 1 µM at ROCK-I(h) was determined as 103%; on Ret(h), 39%; at Tie2 (h), 82%; on Wee1(h) it was 72%; at Yes(h), 56%; at cKit(V560G)(h), 74%. For the same compound, the “residual kinase activity IGF-1R(h), activated” value at IGF-1R(h), activated came out at 74.
